Test results taken from patent publication US20130183435A1, “LOW TEMPERATURE PLASMA COATING FOR ANTI-BIOFILM FORMATION” (priority 2012, published 2013).

Columns and labels:
S. epidermidis biofilm = test: Antibiotic susceptibility assay of cells attached on wafers with different dose of ciprofloxacin; assay type: cell-based; conditions: for decrease of the number of bacteria recovered from biofilms / bacteria recovered: 128 μg/ml; for decrease of the number of bacteria recovered from biofilms: 48 hours
Method: Antibiotic susceptibility assay of S. epidermidis cells attached on wafers with different dose of antibiotics. Biofilm formation on the four groups of wafers in triplicate was performed as described in biofilm formation assay section. The wafers with biofilms were gently washed four times with PBS to remove non-adherent bacterial cells. Then fresh Mueller Hinton broth (MHB) with 0, 2, 8, 32, and 128 μg/ml ciprofloxacin (Sigma-Aldrich, St Louis, Mo.) was added into the wells containing wafers and cultured at 37° C. for 48 hours, with MHB medium with corresponding concentration of ciprofloxacin changed every 12 hours. The wafers were washed four times with PBS and bacteria numbers on the wafers were counted.

[1] = test system: S. epidermidis RP62A biofilm; test: Susceptibility of bacterial cells in biofilm to 6 μg/ml antibiotic; assay type: cell-based; conditions: for reduction of bacterial count in biofilm: 8 hours
Method: Susceptibility of bacterial cells in biofilm to antibiotics was studied with a protocol established previously with modification. SS and Ti wafers (1×1 cm) were sterilized, coated with human plasma, and placed into the wells of 24-well microplates. Overnight culture of S. epidermidis was diluted 1:200 into fresh THY medium with 0.5% glucose. Aliquots (1 ml) of the cell suspensions were seeded into each well containing wafers and incubated at 37° C. for 16 hours. The wafers were gently washed three times with PBS to remove non-adherent bacterial cells. Then fresh Mueller Hinton broth (MHB) with and without 6 μg/ml vancomycin or ciprofloxacin was added into the wells containing wafers and cultured at 37° C. for 8 hours. The wafers were washed four times with PBS and then put into tubes with PBS. The biofilms on wafers were detached and disaggregated with ultrasonic bath treatment. The number of bacterial cells was quantified using the spread plate technique. Response to antibiotic treatment of a treated sample was defined as the percentage of untreated samples calculated by CFU numbers. Triplicate of wafers were used in each experiments and four independent experiments were performed for vacomycin and three independent experiments were performed for ciprofloxacin.

Row | SMILES | number of bacteria, percent of bacteria on bare surfaces with neither TMS coating nor ciprofloxacin treatment (S. epidermidis biofilm; 8 μg/ml, TMS coated surfaces) | number of bacteria, percent of bacteria on TMS coated surfaces without ciprofloxacin treatment (S. epidermidis biofilm; 32 μg/ml, TMS coated surfaces) | decrease of the number of bacteria recovered from biofilms (S. epidermidis biofilm; uncoated SS surfaces) | decrease of the number of bacteria recovered from biofilms (S. epidermidis biofilm; uncoated Ti surfaces) | bacteria recovered (S. epidermidis biofilm; TMS coated SS surfaces) | bacteria recovered (S. epidermidis biofilm; TMS coated Ti surfaces) | MBC for biofilms (S. epidermidis biofilm; biofilms on TMS coated surfaces, MBC = 99.9% (3 log10 units) decrease) | MBC for bacteria in biofilms (S. epidermidis biofilm; biofilms on uncoated surfaces) | reduction of bacterial count in biofilm ([1]; TMS coated SS wafer) | reduction of bacterial count in biofilm ([1]; TMS coated Ti wafer) | reduction of bacterial count in biofilm ([1]; uncoated SS wafer) | reduction of bacterial count in biofilm ([1]; uncoated Ti wafer) | response of bacterial cells to antibiotic treatment ([1]; uncoated wafers)
1 | O=C(O)c1cn(C2CC2)c2cc(N3CCNCC3)c(F)cc2c1=O [ciprofloxacin] | less than 0.01% | less than 0.1% | 99.6±0.07% | 99.3±0.1% | 177±80 | 444±217 | less than 32 μg/ml | more than 128 μg/ml | 99.4±0.1% | 96.8±1.4% | 86±1.2% | 81.8±3.2% | –
2 | CN[C@H](CC(C)C)C(=O)N[C@H]1C(=O)N[C@@H](CC(N)=O)C(=O)N[C@H]2C(=O)N[C@H]3C(=O)N[C@H](C(=O)N[C@H](C(=O)O)c4cc(O)cc(O)c4-c4cc3ccc4O)[C@H](O)c3ccc(c(Cl)c3)Oc3cc2cc(c3O[C@@H]2O[C@H](CO)[C@@H](O)[C@H](O)[C@H]2O[C@H]2C[C@](C)(N)[C@H](O)[C@H](C)O2)Oc2ccc(cc2Cl)[C@H]1O [vacomycin, vancomycin] | – | – | – | – | – | – | – | – | about 83.8±4.3% | 91.9±1.6% | – | – | resistant
